ChEMBL document CHEMBL5055683, “Synthetic Sansanmycin Analogues as Potent Mycobacterium tuberculosis Translocase I Inhibitors” (J Med Chem, 2021)
pIC50: −log10 of the molar value. Converted amounts (≈) assume the structure as drawn. The source made the active and inactive calls. No cut-off for these calls is given here.

Experiments:
[1] = test system: Mycobacterium tuberculosis H37Rv; experiment: Antimycobacterial activity against Mycobacterium tuberculosis H37Rv infected in human THP-1 macrophages assessed as reduction in microbial growth incubated for 72 hrs; format: functional
[2] = test system: Mycobacterium tuberculosis H37Rv; experiment: Antimycobacterial activity against Mycobacterium tuberculosis H37Rv assessed as reduction in bacterial growth incubated for 5 days by resazurin assay; format: functional; details: 120 h, time 5 day
Mycobacterium marinum [3] = experiment: Antimycobacterial activity against Mycobacterium marinum infected in zebrafish assessed as reduction in bacterial burden at 100 uM after 5 days post infection by microscopic analysis; format: functional, organism-based; details: time 5.0 day
[4] = Inhibition of Mycobacterium tuberculosis MurX using UDP-MurNAc-dansylpentapeptide as substrate by fluorescence assay
Mycobacterium marinum [5] = experiment: Antimycobacterial activity against Mycobacterium marinum infected in zebrafish assessed as reduction in bacterial burden at 100 uM after 3 days post infection by microscopic analysis; format: functional, organism-based; details: time 3.0 day
[6] = test system: Mycobacteroides abscessus; experiment: Antimycobacterial activity against Mycobacterium abscessus RA 16 assessed as reduction in bacterial growth measured every 1 hr for 16 to 20 hrs; format: functional; details: time 16-20 hrs
[7] = test system: Mycobacterium tuberculosis; experiment: Antimycobacterial activity against Mycobacterium tuberculosis mc2 6230 assessed as reduction in bacterial growth incubated for 10 days by time-kill kinetics method; format: functional; details: mc2 6230, 240 h, time 10 day
Mycobacterium avium = experiment: Antimycobacterial activity against Mycobacterium avium CA 6 assessed as reduction in bacterial growth measured every 1 hr for 16 to 20 hrs; format: functional; details: time 16-20 hrs
[8] = test system: Staphylococcus epidermidis; experiment: Antibacterial activity against Staphylococcus epidermidis assessed as reduction in bacterial growth measured every 1 hr for 16 to 20 hrs; format: functional; details: time 16-20 hrs
Enterococcus faecium = experiment: Antibacterial activity against Enterococcus faecium ATCC 6569 assessed as reduction in bacterial growth measured every 1 hr for 16 to 20 hrs; format: functional; details: time 16-20 hrs
[9] = test system: Mycolicibacterium fortuitum; experiment: Antimycobacterial activity against Mycobacterium fortuitum PN assessed as reduction in bacterial growth measured every 1 hr for 16 to 20 hrs; format: functional; details: time 16-20 hrs
[10] = test system: Mycolicibacterium fortuitum; experiment: Antimycobacterial activity against Mycobacterium fortuitum RA 17 assessed as reduction in bacterial growth measured every 1 hr for 16 to 20 hrs; format: functional; details: time 16-20 hrs
Staphylococcus aureus = experiment: Antibacterial activity against Staphylococcus aureus ATCC 29213 assessed as reduction in bacterial growth measured every 1 hr for 16 to 20 hrs; format: functional; details: time 16-20 hrs
Pseudomonas aeruginosa = experiment: Antibacterial activity against Pseudomonas aeruginosa ATCC 27853 assessed as reduction in bacterial growth measured every 1 hr for 16 to 20 hrs; format: functional; details: time 16-20 hrs
Bacillus subtilis = experiment: Antibacterial activity against Bacillus subtilis 168 assessed as reduction in bacterial growth measured every 1 hr for 16 to 20 hrs; format: functional; details: time 16-20 hrs
Escherichia coli = experiment: Antibacterial activity against Escherichia coli BW25113 assessed as reduction in bacterial growth measured every 1 hr for 16 to 20 hrs; format: functional; details: time 16-20 hrs
[11] = Antimycobacterial activity against Mycobacterium abscessus subsp. abscessus assessed as reduction in bacterial growth measured every 1 hr for 16 to 20 hrs; format: functional; details: Mycobacteroides abscessus; time 16-20 hrs
[12] = test system: Mycobacterium tuberculosis; experiment: Bacteriostatic activity against Mycobacterium tuberculosis mc2 6230 at 10 times MIC after 28 days by time-kill kinetics method; format: functional, organism-based; details: time 28.0 day

Compound | MIC50 [1] | MIC50 [2] | pIC50 [4] | further results
C[C@@H]([C@H](NC(=O)[C@H](Cc1ccc2ccccc2c1)NC(=O)N[C@@H](Cc1c[nH]c2ccccc12)C(=O)O)C(=O)NC[C@H]1C[C@@H](O)[C@H](n2ccc(=O)[nH]c2=O)O1)N(C)C(=O)CN | 4.3 µM | 0.18 µM (≈ 0.149 µg/mL) |  | 
CCCCCCCCCCCCOC(=O)[C@H](Cc1c[nH]c2ccccc12)NC(=O)N[C@@H](Cc1ccc2ccccc2c1)C(=O)N[C@H](C(=O)NC[C@H]1C[C@@H](O)[C@H](n2ccc(=O)[nH]c2=O)O1)[C@H](C)N(C)C(=O)CN |  | 0.192 µM (≈ 0.191 µg/mL) |  | 
CO[C@H]1/C=C/O[C@@]2(C)Oc3c(C)c(O)c4c(O)c(c(/C=N/N5CCN(C)CC5)c(O)c4c3C2=O)NC(=O)/C(C)=C\C=C\[C@H](C)[C@H](O)[C@@H](C)[C@@H](O)[C@@H](C)[C@H](OC(C)=O)[C@@H]1C [RIFAMPIN] |  | 0.00153 µM (≈ 0.00126 µg/mL) |  | Activity (Mycobacterium marinum [3]): Active
CCCCCCOC(=O)[C@H](Cc1c[nH]c2ccccc12)NC(=O)N[C@@H](Cc1ccc2ccccc2c1)C(=O)N[C@H](C(=O)NC[C@H]1C[C@@H](O)[C@H](n2ccc(=O)[nH]c2=O)O1)[C@H](C)N(C)C(=O)CN | 0.5 µM | 0.0269 µM (≈ 0.0245 µg/mL) | 5.57 | 
COC(=O)[C@H](Cc1c[nH]c2ccccc12)NC(=O)N[C@@H](CC1CCCCC1)C(=O)N[C@H](C(=O)NC[C@H]1C[C@@H](O)[C@H](n2ccc(=O)[nH]c2=O)O1)[C@H](C)N(C)C(=O)CN |  | 0.0397 µM (≈ 0.0316 µg/mL) |  | 
C[C@@H]([C@H](NC(=O)[C@H](Cc1ccc2ccccc2c1)NC(=O)N[C@@H](Cc1c[nH]c2ccccc12)C(=O)NCc1ccccc1)C(=O)NC[C@H]1C[C@@H](O)[C@H](n2ccc(=O)[nH]c2=O)O1)N(C)C(=O)CN | 1.9 µM | 0.0741 µM (≈ 0.0678 µg/mL) | 7.47 | 
C[C@@H]([C@H](NC(=O)[C@H](Cc1ccc2ccccc2c1)NC(=O)N[C@@H](Cc1c[nH]c2ccccc12)C(=O)OCC(C)(C)C)C(=O)NC[C@H]1C[C@@H](O)[C@H](n2ccc(=O)[nH]c2=O)O1)N(C)C(=O)CN | 1.5 µM | 0.021 µM (≈ 0.0188 µg/mL) | 6.10 | 
CCCCCCCCCCCCOC(=O)[C@H](Cc1c[nH]c2ccccc12)NC(=O)N[C@@H](CC1CCCCC1)C(=O)N[C@H](C(=O)NC[C@H]1C[C@@H](O)[C@H](n2ccc(=O)[nH]c2=O)O1)[C@H](C)N(C)C(=O)CN |  | 0.142 µM (≈ 0.135 µg/mL) |  | 
C[C@@H]([C@H](NC(=O)[C@H](Cc1ccc2ccccc2c1)NC(=O)N[C@@H](Cc1c[nH]c2ccccc12)C(=O)NCC(C)(C)C)C(=O)NC[C@H]1C[C@@H](O)[C@H](n2ccc(=O)[nH]c2=O)O1)N(C)C(=O)CN | 1.2 µM | 0.0419 µM (≈ 0.0375 µg/mL) | 7.70 | Activity (Mycobacterium marinum [5]): Active; MIC [6]: 13 µM (≈ 11.6 µg/mL); MIC [7]: 0.181 µM (≈ 0.162 µg/mL); MIC (Mycobacterium avium): 1 µM (≈ 0.895 µg/mL); MIC [8]: > 132 µM; MIC (Enterococcus faecium): > 132 µM; MIC [9]: 2 µM (≈ 1.79 µg/mL); MIC [10]: 1 µM (≈ 0.895 µg/mL); MIC (Staphylococcus aureus): > 132 µM; MIC (Pseudomonas aeruginosa): > 132 µM; MIC (Bacillus subtilis): 132 µM (≈ 118 µg/mL); MIC (Escherichia coli): 132 µM (≈ 118 µg/mL); MIC [11]: 26 µM (≈ 23.3 µg/mL); Activity [12]: Active
CCCCCCNC(=O)[C@H](Cc1c[nH]c2ccccc12)NC(=O)N[C@@H](Cc1ccc2ccccc2c1)C(=O)N[C@H](C(=O)NC[C@H]1C[C@@H](O)[C@H](n2ccc(=O)[nH]c2=O)O1)[C@H](C)N(C)C(=O)CN | 2.1 µM | 0.0925 µM (≈ 0.0841 µg/mL) | 7.31 | 
C[C@@H]([C@H](NC(=O)[C@H](CC1CCCCC1)NC(=O)N[C@@H](Cc1c[nH]c2ccccc12)C(=O)NCC(C)(C)C)C(=O)NC[C@H]1C[C@@H](O)[C@H](n2ccc(=O)[nH]c2=O)O1)N(C)C(=O)CN | 6.7 µM | 0.0225 µM (≈ 0.0191 µg/mL) | 7.22 | MIC [6]: 23 µM (≈ 19.6 µg/mL); MIC [7]: 0.313 µM (≈ 0.266 µg/mL); MIC (Mycobacterium avium): 1 µM (≈ 0.851 µg/mL); MIC [8]: > 132 µM; MIC (Enterococcus faecium): > 132 µM; MIC [9]: 1 µM (≈ 0.851 µg/mL); MIC [10]: 1 µM (≈ 0.851 µg/mL); MIC (Staphylococcus aureus): > 132 µM; MIC (Pseudomonas aeruginosa): > 132 µM; MIC (Bacillus subtilis): > 132 µM; MIC (Escherichia coli): 88 µM (≈ 74.9 µg/mL); MIC [11]: 23 µM (≈ 19.6 µg/mL); Activity [12]: inactive
C[C@@H]([C@H](NC(=O)[C@H](CC1CCCCC1)NC(=O)N[C@@H](Cc1c[nH]c2ccccc12)C(=O)O)C(=O)NC[C@H]1C[C@@H](O)[C@H](n2ccc(=O)[nH]c2=O)O1)N(C)C(=O)CN | 1.6 µM | 0.08 µM (≈ 0.0625 µg/mL) | 7.27 | 
CCCCCCNC(=O)[C@H](Cc1c[nH]c2ccccc12)NC(=O)N[C@@H](CC1CCCCC1)C(=O)N[C@H](C(=O)NC[C@H]1C[C@@H](O)[C@H](n2ccc(=O)[nH]c2=O)O1)[C@H](C)N(C)C(=O)CN | > 100 µM | 0.124 µM (≈ 0.107 µg/mL) | 7.12 | 
COC(=O)[C@H](Cc1c[nH]c2ccccc12)NC(=O)N[C@@H](Cc1ccc2ccccc2c1)C(=O)N[C@H](C(=O)NC[C@H]1C[C@@H](O)[C@H](n2ccc(=O)[nH]c2=O)O1)[C@H](C)N(C)C(=O)CN |  | 0.0652 µM (≈ 0.0548 µg/mL) |  | 
C[C@@H]([C@H](NC(=O)[C@H](CC1CCCCC1)NC(=O)N[C@@H](Cc1c[nH]c2ccccc12)C(=O)OCC(C)(C)C)C(=O)NC[C@H]1C[C@@H](O)[C@H](n2ccc(=O)[nH]c2=O)O1)N(C)C(=O)CN | 12.5 µM | 0.0059 µM (≈ 0.00503 µg/mL) | 6.15 | 
C[C@@H]([C@H](NC(=O)[C@H](CC1CCCCC1)NC(=O)N[C@@H](Cc1c[nH]c2ccccc12)C(=O)NCc1ccccc1)C(=O)NC[C@H]1C[C@@H](O)[C@H](n2ccc(=O)[nH]c2=O)O1)N(C)C(=O)CN | 4.6 µM | 0.0454 µM (≈ 0.0395 µg/mL) | 7.18 | 
CCCCCCOC(=O)[C@H](Cc1c[nH]c2ccccc12)NC(=O)N[C@@H](CC1CCCCC1)C(=O)N[C@H](C(=O)NC[C@H]1C[C@@H](O)[C@H](n2ccc(=O)[nH]c2=O)O1)[C@H](C)N(C)C(=O)CN | 9.5 µM | 0.0172 µM (≈ 0.0149 µg/mL) | 5.86 | 
C[C@@H]([C@H](NC(=O)[C@H](Cc1ccc2ccccc2c1)NC(=O)N[C@@H](Cc1c[nH]c2ccccc12)C(=O)OCc1ccccc1)C(=O)NC[C@H]1C[C@@H](O)[C@H](n2ccc(=O)[nH]c2=O)O1)N(C)C(=O)CN | 5.1 µM | 0.0132 µM (≈ 0.0121 µg/mL) | 5.86 | 
C[C@@H]([C@H](NC(=O)[C@H](CC1CCCCC1)NC(=O)N[C@@H](Cc1c[nH]c2ccccc12)C(=O)OCc1ccccc1)C(=O)NC[C@H]1C[C@@H](O)[C@H](n2ccc(=O)[nH]c2=O)O1)N(C)C(=O)CN | 11.3 µM | 0.0085 µM (≈ 0.00741 µg/mL) | 6.21 | 
